Where “and” joins values, the source holds several entries; their conditions need not be identical. Equal values may be shown once.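 Growth conditions: 96-well plates. Treatment: test compound, 48 hours, 5 concentrations. Analysis: linear interpolation between bracketing concentrations; unreached endpoints set to highest concentration. Here, GI50 denotes the concentration required for 50% inhibition of growth. TGI is the concentration that stops growth completely.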
Assays:
Assay in all cases: growth of human tumour cells (NCI), 48 h
SF-295 CNS = test system: SF-295 CNS
HS 578T breast = test system: HS 578T breast
SK-MEL-5 melanoma = test system: SK-MEL-5 melanoma
COLO 205 colon = test system: COLO 205 colon
HOP-92 NSCLC = test system: HOP-92 NSCLC
SR leukemia = test system: SR leukemia
RPMI-8226 leukemia = test system: RPMI-8226 leukemia
DU-145 prostate = test system: DU-145 prostate
M14 melanoma = test system: M14 melanoma
HL-60(TB) leukemia = test system: HL-60(TB) leukemia

| Compound | TGI (SF-295 CNS) | TGI (HS 578T breast) [µM] | GI50 (SK-MEL-5 melanoma) [µM] | TGI (SK-MEL-5 melanoma) | GI50 (COLO 205 colon) [µM] | TGI (COLO 205 colon) | GI50 (HOP-92 NSCLC) [µM] | TGI (HOP-92 NSCLC) | TGI (SR leukemia) [µM] | GI50 (RPMI-8226 leukemia) | TGI (RPMI-8226 leukemia) | GI50 (DU-145 prostate) [µM] | TGI (DU-145 prostate) | GI50 (M14 melanoma) [µM] | TGI (M14 melanoma) | TGI (HL-60(TB) leukemia) |
| --- | --- | --- | --- | --- | --- | --- | --- | --- | --- | --- | --- | --- | --- | --- | --- | --- |
| CC(=O)C1(O)Cc2c(O)c3c(c(O)c2C(OC2CC(N)C(O)C(C)O2)C1)C(=O)c1ccccc1C3=O (stereo unspecified) | 0.388 µM and 0.0514 µM | 0.391 | < 0.0119 | 0.33 µM and 0.0697 µM | 0.0227 | 0.803 µM and 0.181 µM | 0.0165 | 0.867 µM and 0.413 µM | 0.0813 | 0.0305 µM and < 0.0131 µM | 0.35 µM and 0.0968 µM | < 0.0104 | 0.438 µM and 0.0587 µM | 0.0145 | 0.605 µM and 0.158 µM | 0.0806 µM and < 0.0108 µM |
| C=CCN1CCC2(CC1)NC(=O)c1ccccc1O2 | > 100 µM | > 100 | – | > 100 µM | – | > 100 µM | – | > 100 µM | > 100 | – | > 100 µM | – | > 100 µM | – | > 100 µM | > 100 µM |
| CN(C)c1ccc(/C=c2/c3cc([N+](=O)[O-])ccc3n3c2cc(-c2ccccc2)[n+]3C)cc1 | 7.51 µM | 7.97 | – | 1.11 µM | – | 1.48 µM | – | 3.16 µM | 3.02 | – | 1.72 µM | – | 6.68 µM | – | 2.66 µM | 1.72 µM |
| C=C1c2nc3ccccc3n2C=C(c2ccc(OC)cc2)N1c1ccc(OCCN2CCOCC2)cc1 | > 100 µM | > 40 | – | > 100 µM | – | > 57 µM | – | > 100 µM | > 55.2 | – | 9.05 µM | – | > 100 µM | – | > 55.4 µM | > 34.8 µM |
| CC1(C)c2ccccc2C(O)C12CCC(=O)CC2 (stereo unspecified) | > 100 µM | > 100 | – | > 100 µM | – | > 100 µM | – | > 100 µM | > 100 | – | > 100 µM | – | > 100 µM | – | > 100 µM | > 100 µM |
| C=CCC(CNC(=O)OCc1ccccc1)OC(=O)OCc1ccccc1 (stereo unspecified) | > 100 µM | > 100 | – | 56 µM | – | > 100 µM | – | > 100 µM | 62 | – | 68.1 µM | – | > 100 µM | – | > 100 µM | > 100 µM |
| O=C1OC(=O)C2C1C(c1ccccc1[N+](=O)[O-])C=C(c1ccco1)N2c1ccncc1 (stereo unspecified) | 24.5 µM | > 100 | – | 19.7 µM | – | 23.9 µM | – | 15.8 µM | 1.44 | – | 4.4 µM | – | 19.7 µM | – | > 50.5 µM | 5.63 µM |
| CCOP(=O)(OCC)C(Nc1ccc(F)cc1)c1ccccc1 (stereo unspecified) | > 100 µM | > 100 | – | > 100 µM | – | > 100 µM | – | > 100 µM | > 100 | – | > 100 µM | – | > 100 µM | – | > 100 µM | > 100 µM |
| Cc1cccc(NC2=NCCO2)c1Cl | > 100 µM | > 100 | – | > 100 µM | – | > 100 µM | – | > 100 µM | > 100 | – | > 100 µM | – | > 100 µM | – | > 100 µM | > 100 µM |
| CN(C)CCn1nc(N)c2nc3cc(C(F)(F)F)ccc3nc21 | > 100 µM | > 100 | – | > 100 µM | – | > 100 µM | – | > 100 µM | > 100 | – | > 100 µM | – | > 100 µM | – | > 100 µM | > 100 µM |
| CCCC1(N)CC(OC)OC(C)C1O (stereo unspecified) | > 100 µM | > 100 | – | > 100 µM | – | > 100 µM | – | > 100 µM | > 100 | – | > 100 µM | – | > 100 µM | – | > 100 µM | > 100 µM |
| CCOC(=O)CC[C@H](N)C(=O)N[C@H](Cc1ccc(N(CCCl)CCCl)cc1)C(=O)OCC | 23 µM | 6.64 | – | > 100 µM | – | 4.26 µM | – | 3.24 µM | > 33.6 | – | > 73.9 µM | – | 3.77 µM | – | 12.9 µM | 38.9 µM |

Source: PubChem BioAssay (NCI)
